In article PMC10892041, “Vanadium Complexes with Thioanilide Derivatives of Amino Acids: Inhibition of Human Phosphatases and Specificity in Various Cell Models of Metabolic Disturbances” (Pharmaceuticals, 2024):
pIC50: −log10 of the molar value. Like-named read-outs stand apart in the source and are kept apart here.

Columns and labels:
PTP1B = molecular target: T1, PTP1B (Homo sapiens, UniProt P18031); test: Inhibition of human recombinant tyrosine phosphatase PTP1B (DiFMUP fluorescence); type: biochemical; conditions: for Inhibition of PTP1B, percentage of inhibition of the control: 1 µM, control solvent only, SD did not exceed 6%
T1 construct: purchased Sigma-Aldrich
T1 sequence (P18031 1-435): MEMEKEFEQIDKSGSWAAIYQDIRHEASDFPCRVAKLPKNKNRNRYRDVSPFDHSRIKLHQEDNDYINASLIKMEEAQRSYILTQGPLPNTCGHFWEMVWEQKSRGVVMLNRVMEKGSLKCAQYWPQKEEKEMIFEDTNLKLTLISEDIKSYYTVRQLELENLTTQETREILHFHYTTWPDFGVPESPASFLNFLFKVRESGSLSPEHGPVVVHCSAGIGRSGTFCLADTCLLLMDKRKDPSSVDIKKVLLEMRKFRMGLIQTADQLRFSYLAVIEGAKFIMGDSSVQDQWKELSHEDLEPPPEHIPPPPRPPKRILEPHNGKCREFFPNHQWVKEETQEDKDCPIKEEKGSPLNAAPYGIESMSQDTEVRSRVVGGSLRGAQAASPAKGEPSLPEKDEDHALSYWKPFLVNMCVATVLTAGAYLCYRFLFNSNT
Description: (§1) To determine the ability of the tested compounds for inhibition tyrosine phosphatases, human recombinant proteins were used (Sigma-Aldrich). The reactions were performed in black opaque 384-well microplates (PerkinElmer, Waltham, MA, USA). An equal volume of phosphatase solution in a reaction buffer (25 mM of 3-(N-morpholino)propanesulfonic acid (MOPS), 50 mM NaCl, 1 mM dithiothreitol (DTT), and 0.05% Tween-20 (pH 7.0)) was added to the solution of the tested compound on microplate. These solutions were dispensed using an automated injector. The following final concentrations of the tested phosphatases were used: PTP1B 50 ng/mL, SHP1 400 ng/mL, SHP2 50 ng/mL, LAR 5 ng/mL, and PTPRA 100 ng/mL. After 10 min, a solution of phosphate 6,8-difluoro-4-methyl (DiFMUP; Thermo Fisher Scientific) was added until its final concentration was 0.1 mM. Samples were incubated for 20 miN at 23 °C, and then the measurements of fluorescence intensity (excitation 355 and emission […]) were performed on a multifunctional plate reader POLARstar Omega (BMG Labtech, Ortenberg, Germany). Assays were performed in triplicate. For the screening assays, the final concentration of the tested compounds was 1 µM. The results were expressed as percent inhibition of untreated control (enzyme with vehicle only) for the screening tests. […] IC50 were calculated using GraphPad Prism version 6.0 software (GraphPad Software, Boston, MA, USA).

SHP1 = molecular target: T2, SHP1 (Homo sapiens, UniProt P29350); test: Inhibition of human recombinant tyrosine phosphatase SHP1 (DiFMUP fluorescence); type: biochemical; conditions: for Inhibition of SHP1, percentage of inhibition of the control: 1 µM, control solvent only, SD did not exceed 6%
T2 construct: purchased Sigma-Aldrich
T2 sequence (P29350 whole entry): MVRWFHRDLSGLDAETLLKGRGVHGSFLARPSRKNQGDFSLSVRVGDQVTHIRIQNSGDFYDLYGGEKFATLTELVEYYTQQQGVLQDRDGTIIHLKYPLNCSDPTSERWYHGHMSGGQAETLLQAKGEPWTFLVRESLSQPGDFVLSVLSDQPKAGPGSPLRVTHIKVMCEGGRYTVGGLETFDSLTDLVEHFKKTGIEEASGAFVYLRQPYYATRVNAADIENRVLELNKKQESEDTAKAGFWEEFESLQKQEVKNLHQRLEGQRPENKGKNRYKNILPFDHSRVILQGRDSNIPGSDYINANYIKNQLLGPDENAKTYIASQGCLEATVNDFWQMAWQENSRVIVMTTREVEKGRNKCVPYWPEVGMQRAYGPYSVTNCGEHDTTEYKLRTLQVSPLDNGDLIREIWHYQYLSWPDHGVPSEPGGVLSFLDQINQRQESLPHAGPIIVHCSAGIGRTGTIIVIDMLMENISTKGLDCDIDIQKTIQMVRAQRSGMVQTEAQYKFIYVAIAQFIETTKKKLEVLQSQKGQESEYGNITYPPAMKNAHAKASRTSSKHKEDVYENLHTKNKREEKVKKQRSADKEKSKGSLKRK
Description: as §1

SHP2 = molecular target: T3, SHP2 (Homo sapiens, UniProt Q06124); test: Inhibition of human recombinant tyrosine phosphatase SHP2 (DiFMUP fluorescence); type: biochemical; conditions: for Inhibition of SHP2, percentage of inhibition of the control: 1 µM, control solvent only, SD did not exceed 6%
T3 construct: purchased Sigma-Aldrich
T3 sequence (Q06124 1-593): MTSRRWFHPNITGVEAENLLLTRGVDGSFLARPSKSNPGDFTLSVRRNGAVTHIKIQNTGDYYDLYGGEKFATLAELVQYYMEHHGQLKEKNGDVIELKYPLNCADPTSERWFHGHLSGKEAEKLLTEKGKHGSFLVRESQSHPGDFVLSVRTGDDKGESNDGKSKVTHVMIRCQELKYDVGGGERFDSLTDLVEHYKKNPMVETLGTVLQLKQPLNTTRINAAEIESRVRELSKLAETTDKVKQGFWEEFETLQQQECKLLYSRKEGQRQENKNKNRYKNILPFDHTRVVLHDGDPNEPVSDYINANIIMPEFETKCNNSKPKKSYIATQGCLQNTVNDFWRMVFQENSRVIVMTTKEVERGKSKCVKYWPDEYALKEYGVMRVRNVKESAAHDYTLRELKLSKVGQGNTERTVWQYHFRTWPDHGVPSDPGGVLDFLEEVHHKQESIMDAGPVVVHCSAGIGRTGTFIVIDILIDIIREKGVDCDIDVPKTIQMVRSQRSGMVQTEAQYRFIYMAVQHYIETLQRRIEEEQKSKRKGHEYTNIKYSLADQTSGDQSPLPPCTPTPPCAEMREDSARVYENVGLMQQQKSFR
Description: as §1

adipocytes 3T3-L1 = test: Scintillation proximity assay, transport of [14C]-deoxy-D-glucose into adipocytes 3T3-L1; type: cell-based, mouse; conditions: 50 µM
Description: Adipocytes 3T3-L1 cell line (ATCC CRL-11605) derived from fibroblasts from mouse embryo tissue were cultured according to standard protocol in DMEM medium supplemented with 10% bovine calf serum, 100 IU/mL penicillin, and […] streptomycin at 37 °C in 5% CO2. Cells were seeded in 96-well poly-D-lysine-coated plates and cultured to reach confluency.
(§2) Scintillation proximity assay (SPA) is a method to measure the real-time accumulation of radiolabeled substrates by adherent cells with no filtration needed. Radioactivity concentrated closer to the scintillator embedded in the plastic bottom of each well provides a stronger signal than the radiolabeled substrate in the culture medium. Uptake of radiolabeled 2-deoxy-D-[U-14C]-glucose was conducted based on previous descriptions.
Adipocytes were washed and the medium was changed to the basal medium. After 24 h incubation, the tested complexes were added. After 2 h incubation at 37 °C in 5% CO2, the medium was changed to DMEM medium without glucose, with 0.1% BSA free from fatty acid, […] L-glutamine, and […] pyruvate. The tested complexes were added again, and further incubation for 4 h was conducted.
(§3) For cells proceeded as above, 2-deoxy-D-[U-14C]-glucose (250–350 mCi/mmol, NEC720A, PerkinElmer) solution in KRB with a total activity of 0.03 mCi was added to each well. […] Non-specific radioactivity was subtracted from each result (cpm). Two independent experiments with triplicates were conducted.

LAR = molecular target: T4, LAR (Homo sapiens, UniProt P10586); test: Inhibition of human recombinant tyrosine phosphatase LAR (DiFMUP fluorescence); type: biochemical; conditions: for Inhibition of LAR, percentage of inhibition of the control: 1 µM, control solvent only, SD did not exceed 6%
T4 sequence (P10586 1352-1607 limits assumed): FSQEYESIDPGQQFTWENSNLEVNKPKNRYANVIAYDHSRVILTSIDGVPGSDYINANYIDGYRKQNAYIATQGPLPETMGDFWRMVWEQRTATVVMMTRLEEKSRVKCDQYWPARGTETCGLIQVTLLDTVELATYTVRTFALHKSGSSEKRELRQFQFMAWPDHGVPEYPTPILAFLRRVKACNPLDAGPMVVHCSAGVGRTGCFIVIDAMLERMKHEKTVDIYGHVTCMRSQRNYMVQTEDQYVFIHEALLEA
Description: as §1

PP2A = PP2A (Homo sapiens, UniProt P67775); test: Inhibition of human recombinant non-tyrosine phosphatase PP2A (DiFMUP); type: biochemical
Sequence of PP2A (P67775 whole entry): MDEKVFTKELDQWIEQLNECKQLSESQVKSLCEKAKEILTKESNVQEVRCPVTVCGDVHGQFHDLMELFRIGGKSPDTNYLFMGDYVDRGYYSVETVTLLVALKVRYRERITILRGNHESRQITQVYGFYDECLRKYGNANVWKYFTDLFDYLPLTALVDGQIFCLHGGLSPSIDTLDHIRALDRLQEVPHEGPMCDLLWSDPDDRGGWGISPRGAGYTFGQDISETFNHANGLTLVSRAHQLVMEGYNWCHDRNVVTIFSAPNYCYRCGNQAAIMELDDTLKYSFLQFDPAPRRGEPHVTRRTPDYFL
Description: (§4) For the inhibition assay of non-tyrosine phosphatases, human recombinant proteins were used (Sigma-Aldrich). The reactions were performed in black opaque 384-well microplates (PerkinElmer). To the solution of the tested complexes, an equal volume of a test solution of phosphatase was added. CDC25A were diluted in reaction buffer to the final concentration of 400 ng/mL as for tyrosine phosphatases (described in the section above), and PPA2 (final 0.5 U/mL) was diluted in 50 mM Tris-HCl, 0.05% Tween-20, and 125 µg/mL protease-free bovine serum albumin (pH 7.0). These solutions were dispensed using an automated injector. After 10 min, a solution of phosphate 6,8-difluoro-4-methyl (DiFMUP; Thermo Fisher Scientific) was added for the PPA2 sample until the final concentration 0.1 mM. For CDC25A samples, 3-O-methylfluorescein phosphate for the final concentration of 0.2 mM was added. Samples were incubated for 180 min at 23 °C, and then the measurements of fluorescence intensity (excitation 355 and emission 560 nm) were performed on a multifunctional plate reader POLARstar Omega (BMG Labtech). Assays were performed in triplicate. The results were expressed as percent of inhibition of untreated control (enzyme with vehicle solvent only).

myocytes C2C12 [1] = test: Viability of myocytes C2C12 after 24 h incubation (resazurin-based reagent); conditions: 50 µM
Description: Simultaneously with glucose consumption tests, the viability of myocytes C2C12 was examined due to their prolonged 24 h incubation with vanadium complexes.
Prolonged incubation of the cells with vanadium complexes, as was the case during the study of the effect on glucose consumption, more closely corresponds to the actual conditions of clinical use, also allowing for the identification of possible cytotoxic effects. […] A Resazurin-based reagent is reduced proportionally to the metabolic activity of cells as a result of the transference of electrons from NADPH+H^+, the amount of which strictly depends on glucose metabolism.

CDC25A = molecular target: T5, CDC25A (Homo sapiens, UniProt P30304); test: Inhibition of human recombinant non-tyrosine phosphatase CDC25A (3-O-methylfluorescein phosphate); type: biochemical
T5 construct: purchased Sigma-Aldrich
T5 sequence (P30304 1-524): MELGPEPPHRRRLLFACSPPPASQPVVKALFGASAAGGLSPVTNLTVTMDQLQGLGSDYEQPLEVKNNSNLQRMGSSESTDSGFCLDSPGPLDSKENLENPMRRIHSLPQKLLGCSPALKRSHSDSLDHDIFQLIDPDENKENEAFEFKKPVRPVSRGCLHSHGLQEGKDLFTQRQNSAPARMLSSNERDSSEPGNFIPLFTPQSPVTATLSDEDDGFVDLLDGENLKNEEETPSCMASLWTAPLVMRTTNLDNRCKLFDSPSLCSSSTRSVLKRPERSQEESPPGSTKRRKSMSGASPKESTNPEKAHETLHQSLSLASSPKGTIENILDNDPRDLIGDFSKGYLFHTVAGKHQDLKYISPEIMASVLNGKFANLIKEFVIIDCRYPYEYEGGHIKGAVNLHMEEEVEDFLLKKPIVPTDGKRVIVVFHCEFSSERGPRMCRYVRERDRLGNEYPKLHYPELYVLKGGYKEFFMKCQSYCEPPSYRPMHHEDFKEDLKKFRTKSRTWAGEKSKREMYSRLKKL
Description: as §4

myocytes C2C12 [2] = test: Scintillation proximity assay, transport of [14C]-deoxy-D-glucose into myocytes C2C12; type: cell-based, mouse; conditions: for Transport of [14C]-deoxy-D-glucose into C2C12 myocytes, % of the control: 50 µM, control solvent only
Description: (§5) The myocyte C2C12 cell line (ATCC CRL-1772), a subclone of myoblasts from mouse muscles, was cultured according to standard protocol in DMEM supplemented with 10% fetal calf serum, 100 IU/ml penicillin, and […] streptomycin at 37 °C in 5% CO2. Cells were pleated on a 96-well microplate and after reach confluence were differentiated in medium with 2% horse serum. Differentiation medium was changed every 72 h.
as §2
After 24 h incubation, the tested complexes were added. After 2 h incubation at 37 °C in 5% CO2, the medium was changed to low-glucose medium (1000 mg/L), and the tested complexes were added again, with further incubation for 4 h being conducted.
as §3

myocytes C2C12 [3] = test: Glucose consumption (utilization) by myocytes C2C12; type: cell-based, mouse; conditions: 50 µM (highest tested concentration); 24 h
Description: as §5
Differentiated myocytes C2C12 were used after 8 days of differentiation. The culture medium was changed for medium with 0.2% bovine serum albumin, 100 IU/mL penicillin, and 100 µg/mL streptomycin, and after 2 hours of incubation, the medium was changed to fresh medium containing the tested compounds. […]
Glucose concentration was determined based on enzymatic reaction with glucose oxidase and fluorometrically detection reaction end product using an AmplexRed Glucose/Glucose Oxidase Kit (Thermo Fisher Scientific) according to the manufacturer’s protocol. […] Fluorescence signal was measured at excitation of 530 nm and emission of 580 nm using a multimodal microplate reader POLARStar Omega (BMG Labtech), and glucose concentration in samples was calculated in MARS Data Analysis Software version 3.02.R2 (BMG Labtech) based on glucose standards. […] The final results were expressed as the percent of controls containing cells and solvent only.

Inhibition of PTP1B, percentage of inhibition of the control (PTP1B)	Inhibition of SHP1, percentage of inhibition of the control (SHP1)	Inhibition of SHP2, percentage of inhibition of the control (SHP2)	Inhibition of LAR, percentage of inhibition of the control (LAR)	Log IC50 ± SD PTP1B (PTP1B; logarithm of IC50)	pIC50 (PTP1B; read-out: IC50 PTP1B)	pIC50 (PTP1B; read-out: IC50 for PTP1B)	pIC50 (SHP1)	Log IC50 ± SD SHP1 (SHP1; logarithm of IC50)	pIC50 (SHP2)	Inhibition of PP2A, percentage inhibition of control ± SD (PP2A; 1 µM)	Inhibition of PP2A, percentage inhibition of control ± SD (PP2A; 10 µM)	Inhibition of CDC25A, percentage inhibition of control ± SD (CDC25A; 1 µM)	Inhibition of CDC25A, percentage inhibition of control ± SD (CDC25A; 10 µM)	pIC50 (LAR)	Compound	Transport of [14C]-deoxy-D-glucose into 3T3-L1 adipocytes, % of control (adipocytes 3T3-L1)	Cell viability of myocytes C2C12, % of the control (myocytes C2C12 [1])	Transport of [14C]-deoxy-D-glucose into C2C12 myocytes, % of the control (myocytes C2C12 [2])	Transport of [14C]-deoxy-D-glucose into C2C12 myocytes (myocytes C2C12 [2]; 10 and 1 µM)	Glucose consumption by myocytes C2C12, % of the control (myocytes C2C12 [3])
60%	67%	74%	66%												O.[O]=[V]1[O]C(c2ccccc2O)=NN=Cc2cc(Br)ccc2[O]1.c1cnc2c(c1)ccc1cccnc12 [VC013, [VO(L6)(phen)]⋅H2O]	statistically significant activity				
79%	82%	87%	71%	−6.97 ± 0.01	6.97	6.96	7.59	−7.59 ± 0.04	7.89	44 ± 1%	54 ± 9%	55 ± 3%	68 ± 3%	7.12	CC(CC(=S)Nc1ccccc1)=NC(Cc1ccccc1)C(=O)[O][V](=[O])([Cl])[Cl] (stereo not shown) [VC059, [VOCl2(L2)]·0.5Et2O·1.5HCl]		86 ± 6%			
79%	84%	88%	69%												CC(CC(=S)Nc1ccccc1)=NC(CC(C)C)C(=O)[O][V](=[O])([Cl])[Cl] (stereo not shown) [VC070, [VOCl2(L3)]·0.5Et2O·3HCl]	159 % of control		158 ± 10 % of control		
9%	44%	48%	8%												O.O=C(NN=Cc1cc(Br)ccc1[O][V]1[O]C(c2ccccc2)=NN=Cc2cc(Br)ccc2[O]1)c1ccccc1 [VC032, [V(L8)(HL8)]⋅H2O]			266 ± 36 % of control	significant effects	No statistically significant effect
